Values joined by “and” are separate entries in the source; they are usually repeats but may differ in a detail not shown here. Equal entries are not always repeated.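 Five concentrations, 48 hours, 96-well plates. GI50 = concentration required for 50% inhibition of growth. TGI: concentration producing complete growth inhibition.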
Assays:
Experiment in all cases: NCI anticancer screen, dose series, 48 h
[1] = tested on: SF-268 CNS
[2] = tested on: CCRF-CEM leukemia
[3] = tested on: A498 renal
[4] = tested on: RXF 393 renal
[5] = tested on: RPMI-8226 leukemia
[6] = tested on: SN12C renal
[7] = tested on: MALME-3M melanoma
[8] = tested on: BT-549 breast
[9] = tested on: MOLT-4 leukemia
[10] = tested on: 786-0 renal

Row | SMILES | GI50 [1] | TGI [1] | GI50 [2] | TGI [2] | GI50 [3] | TGI [3] | GI50 [4] | TGI [4] | GI50 [5] | TGI [5] | GI50 [6] | TGI [6] | GI50 [7] | TGI [7] [µM] | GI50 [8] | TGI [8] | GI50 [9] | TGI [9] | GI50 [10] | TGI [10]
1 | Cc1ccc(Cl)cc1Nc1nc(C(F)(F)F)ccc1C(=O)Nc1cccc(C(F)(F)F)c1 | 3.59 µM | 13.8 µM | 2.8 µM | 11 µM | 2.97 µM | 8.59 µM | 2.7 µM | 7.92 µM | 2.34 µM | 12.6 µM | 4.29 µM | 18.7 µM | 3.04 µM | 12.4 | 3.56 µM | 13.3 µM | 2.77 µM | 10 µM | 3.16 µM | 11.8 µM
2 | CCSc1oc(-c2ccccc2)nc1[P+](c1ccccc1)(c1ccccc1)c1ccccc1 | 0.331 µM | 4.02 µM | 0.32 µM | 3.21 µM | 0.126 µM | 0.579 µM | 0.331 µM | 1.93 µM | 0.135 µM | 0.52 µM | 0.298 µM | 1.23 µM | 0.287 µM | 1.3 | 0.281 µM | 1.68 µM |  |  | 0.376 µM | 2.11 µM
3 | COc1ccc(-c2oc(=O)ccc2C#Cc2cc(OC)c(OC)c(OC)c2)cc1O | 15.7 µM | 58.5 µM | 2.79 µM | > 100 µM | 30 µM | 76.8 µM | 10.9 µM | 31.9 µM | 10.9 µM | 35.1 µM | 41.5 µM | > 100 µM | 71.8 µM | > 100 | 27 µM | > 100 µM | 3.17 µM | > 100 µM | 24.8 µM | > 100 µM
4 | O=C(O)c1c(O)c2cc(Br)ccc2oc1=O |  | > 100 µM |  | > 100 µM |  | > 100 µM |  | > 100 µM |  | > 100 µM |  | > 100 µM |  | > 100 |  | > 100 µM |  | > 100 µM |  | > 100 µM
5 | CCN(CC)CCN1C(=O)c2c(c(C)c3c(oc4cc(O)ccc43)c2C)C1=O | 1.74 µM | 3.78 µM | 2.23 µM | 6.25 µM | 1.69 µM | 3.12 µM | 1.33 µM | 2.69 µM | 1.77 µM | 4.76 µM | 1.63 µM | 3.11 µM | 1.56 µM | 2.97 | 1.67 µM | 3.19 µM |  |  | 1.62 µM | 3.2 µM
6 | Cn1nc(C(F)(F)F)c(-c2ccc(Cl)c(C(F)(F)F)c2)c1-c1ccc(OCc2ccc(Cl)cc2)cc1O | 1.77 µM | 7.52 µM | 1.85 µM | 6.81 µM | 1.05 µM | 4.1 µM | 1.41 µM | 4.32 µM | 1.98 µM | 7.29 µM | 1.65 µM | 5.92 µM | 1.39 µM | 4.96 | 1.54 µM | 6.51 µM | 1.81 µM | 6.2 µM | 1.8 µM | 7.12 µM
7 | COc1ccc2c(c1)CCC1C2CC[C@@]2(C)C1CC[C@@]2(O)CNC(=O)/C=C/c1ccc(O)c(OC)c1 (some centres undefined) | 20 µM | > 100 µM | 0.932 µM | > 100 µM | 23 µM | 54.5 µM | 21.1 µM | 78.6 µM | 6.47 µM | 53.9 µM | 24.3 µM | > 100 µM | 21.3 µM | > 100 | 16.2 µM | 75.7 µM |  |  | 23.2 µM | > 100 µM
8 | CCCS(=O)(=O)Nc1ccc(F)c(C(=O)c2c[nH]c3ncc(-c4ccc(Cl)cc4)cc23)c1F | 6.09 µM and 6.67 µM | 23.6 µM and > 10 µM | 4.01 µM and 5.42 µM | 23.7 µM and > 10 µM | 1.72 µM and 2.59 µM | 12.3 µM and > 8.97 µM | 1.89 µM and 3.53 µM | 6.58 µM and > 10 µM | 3.9 µM and 6.36 µM | 37.4 µM and > 10 µM | 4.52 µM and > 8.4 µM | 21.9 µM and > 10 µM | 0.0161 µM and 0.0331 µM | 0.0772 | 5.2 µM and > 7.63 µM | 19.2 µM and > 10 µM | 3.72 µM and > 8.33 µM | 16.1 µM and > 10 µM | 4.13 µM and 5.43 µM | 26.2 µM and > 10 µM
9 | CC(=O)OCC1OC(OC2C(COC(C)=O)OC(OCCC[S-])C(OC(C)=O)C2OC(C)=O)C(OC(C)=O)C(OC(C)=O)C1OC(C)=O.[Au+].c1ccc(CN2[CH-]N(Cc3ccccc3)C(c3ccccc3)=C2c2ccccc2)cc1 (centres undefined) | 5.2 µM | 24.9 µM | 3.39 µM | 21.5 µM | 3.41 µM | 11.1 µM | 3.28 µM | 12.3 µM | 2.78 µM | 11.1 µM | 3.32 µM | 15 µM | 2.19 µM | 6.56 | 3.37 µM | 14.8 µM | 3.42 µM | 26 µM | 2.8 µM | 8.56 µM
10 | COc1cc(C)c(C(=O)O[C@H]2[C@H](O[C@H]3[C@@H](O)COC(O[C@H]4C[C@H]5[C@@H]6CC=C7C[C@@H](O)CC[C@]7(C)[C@H]6CC[C@]5(C)[C@H]4[C@H](C)C(=O)CCC(C)C)[C@@H]3OC(C)=O)OC[C@@H](O)[C@@H]2O)c(C)c1 (some centres undefined) | < 0.01 µM | 2.92 µM | < 0.01 µM | 0.102 µM | < 0.01 µM | < 0.01 µM | < 0.01 µM | < 0.01 µM | < 0.01 µM | < 0.01 µM | 10 µM | 25.6 µM | 0.0257 µM | 5.89 | < 0.01 µM | 5.5 µM | < 0.01 µM | 0.704 µM | < 0.01 µM | 2.55 µM
11 | O=C1NC(=O)/C(=C/C=C/c2ccccc2)S1 | 2.96 µM | > 70.2 µM | 2.01 µM | > 100 µM | 0.373 µM | 18.8 µM | 4.95 µM | 27.8 µM | 3.67 µM | > 96.5 µM | 2.05 µM | > 100 µM | 12.3 µM | > 82.4 | 2.34 µM | 58.1 µM | 2.08 µM | > 72 µM | 0.366 µM | 4.27 µM
12 | Nc1ccc(-c2nc3ccc4[nH]ncc4c3c3c2CCCC3)cc1F | 1.76 µM | 19.2 µM | 1.5 µM | 12.2 µM | 0.636 µM | 3.24 µM | 0.36 µM | 2 µM | 0.842 µM | 7.37 µM | 1.96 µM | 13.2 µM | 1.74 µM | 6.98 | 1.28 µM | 7 µM | 1.27 µM | 5.82 µM | 1.6 µM | 10.3 µM

— PubChem BioAssay (NCI)
